Like-named read-outs stand apart in the source and are kept apart here.
Columns and labels:
[1] = Mouse blood levels after subcutaneous injection; assay type: in vivo; settings: in vivo, sc
Excerpt: |Mouse Blood Levels | Blood Levels in Mcg./Ml. at | Indicated Hours After Subcu- |Dose in taneous Injection

Pseudomonas aeruginosa = experiment: MIC by agar dilution against 61 strains of Pseudomonas aeruginosa, secondary evaluation; assay type: cell-based; settings: for Mean % Relative Activity (SPBC = 100%): P. aerug. (61 strains); for MIC: Pseudomonas aeruginosa
Method: Minimum inhibitory concentrations (MIC) of BB-S520 were determined by serial two-fold agar dilution method using Steers' apparatus on Meuller-Hinton agar plate against 31 test organisms for the primary screening and also against 61 strains of Pseudomonas aeruginosa for the secondary evaluation. The results are shown in Table 1 and Table 2 along with those of BB-S514 and sulbenicillin.
Minimum inhibitory concentrations (MIC) of cephalosporins in the present study were determined by serial two-fold agar dilution method using Steers' apparatus on Mueller-Hinton agar plate against 31 test organisms for the primary screening and also against 61 strains of Pseudomonas aeruginosa for the secondary evaluation.

## NC(=O)OCC1=C(C(=O)O)N2C(=O)C(NC(=O)[C@H](NC(=O)c3cnc4cccnc4c3O)c3ccccc3)[C@H]2SC1 (stereo partly drawn) [BB-S520, Sodium 7-[D-α-(4-hydroxy-1,5-naphthyridine-3-carboxamido)-α-phenylacetamido]-3-carbamoyloxymethyl-3-cephem-4-carboxylate]
[1]; 20 mg/kg
  concentration at 0.25 h: 13000 ng/mL
  concentration at 0.5 h: 9000 ng/mL
  concentration at 1 h: 3700 ng/mL
[1]; 40 mg/kg
  concentration at 0.25 h: 25000 ng/mL
  concentration at 0.5 h: 20000 ng/mL
  concentration at 1 h: 7000 ng/mL
  concentration at 2 h: 1000 ng/mL
Pseudomonas aeruginosa; 61 strains of Pseudomonas aeruginosa, Table 7
  Rel. Act. (SBPC=100%): 1016%
Pseudomonas aeruginosa; lot 1, Table 5
  Mean % Relative Activity (SPBC = 100%): 714%
Pseudomonas aeruginosa; lot 2, Table 5
  Mean % Relative Activity (SPBC = 100%): 1016%
Pseudomonas aeruginosa; Ps. aeruginosa (61 strains), from geometric means of MICs in Table 2
  Mean % Relative Activity (Sulbenicillin = 100%): 714%
Pseudomonas aeruginosa; 61 strains of Pseudomonas aeruginosa, Table 7, read-out: Geometric Mean of MIC
  MIC: 2.4 µg/mL
Pseudomonas aeruginosa; BBRI Pa-No. 1, D15, Table 2, read-out: MIC
  MIC: 12.5 µg/mL
Pseudomonas aeruginosa; BBRI Pa-No. 1, D15, Table 7, read-out: MIC
  MIC: 6.3 µg/mL
Pseudomonas aeruginosa; BBRI Pa-No. 2, VA, Table 2, read-out: MIC
  MIC: 3.1 µg/mL
Pseudomonas aeruginosa; BBRI Pa-No. 2, VA, Table 7, read-out: MIC
  MIC: 3.1 µg/mL
Pseudomonas aeruginosa; BBRI Pa-No. 3, 1449VA, Table 2, read-out: MIC
  MIC: 1.6 µg/mL
Pseudomonas aeruginosa; BBRI Pa-No. 3, 1449VA, Table 7, read-out: MIC
  MIC: 0.8 µg/mL
Pseudomonas aeruginosa; BBRI Pa-No. 4, H9 D113, Table 2, read-out: MIC
  MIC: 12.5 µg/mL
Pseudomonas aeruginosa; BBRI Pa-No. 4, H9 D113, Table 7, read-out: MIC
  MIC: 1.6 µg/mL
Pseudomonas aeruginosa; BBRI Pa-No. 5, M4865KC, Table 2, read-out: MIC
  MIC: 3.1 µg/mL
Pseudomonas aeruginosa; BBRI Pa-No. 5, N4865KC, Table 7, read-out: MIC
  MIC: 0.8 µg/mL
Pseudomonas aeruginosa; BBRI Pa-No. 6, No. 5, Table 2, read-out: MIC
  MIC: 25 µg/mL
Pseudomonas aeruginosa; BBRI Pa-No. 6, No. 5, Table 7, read-out: MIC
  MIC: 12.5 µg/mL
Pseudomonas aeruginosa; BBRI Pa-No. 7, Table 2, read-out: MIC
  MIC: 6.3 µg/mL
Pseudomonas aeruginosa; BBRI Pa-No. 7, Table 7, read-out: MIC
  MIC: 3.1 µg/mL
Pseudomonas aeruginosa; BBRI Pa-No. 8, Table 2, read-out: MIC
  MIC: 3.1 µg/mL
Pseudomonas aeruginosa; BBRI Pa-No. 8, Table 7, read-out: MIC
  MIC: 3.1 µg/mL
Pseudomonas aeruginosa; BBRI Pa-No. 9, Yale, Table 2, read-out: MIC
  MIC: 3.1 µg/mL
Pseudomonas aeruginosa; BBRI Pa-No. 9, Yale, Table 7, read-out: MIC
  MIC: 1.6 µg/mL
Pseudomonas aeruginosa; BBRI Pa-No. 10, Table 2, read-out: MIC
  MIC: 50 µg/mL
Pseudomonas aeruginosa; BBRI Pa-No. 10, Table 7, read-out: MIC
  MIC: 25 µg/mL
Pseudomonas aeruginosa; BBRI Pa-No. 11, Table 2, read-out: MIC
  MIC: 3.1 µg/mL
Pseudomonas aeruginosa; BBRI Pa-No. 11, Table 7, read-out: MIC
  MIC: 3.1 µg/mL
Pseudomonas aeruginosa; BBRI Pa-No. 12, Table 2, read-out: MIC
  MIC: 6.3 µg/mL
Pseudomonas aeruginosa; BBRI Pa-No. 12, Table 7, read-out: MIC
  MIC: 3.1 µg/mL
Pseudomonas aeruginosa; BBRI Pa-No. 14, Table 2, read-out: MIC
  MIC: 3.1 µg/mL
Pseudomonas aeruginosa; BBRI Pa-No. 14, Table 7, read-out: MIC
  MIC: 0.8 µg/mL
Pseudomonas aeruginosa; BBRI Pa-No. 15, Table 2, read-out: MIC
  MIC: 12.5 µg/mL
Pseudomonas aeruginosa; BBRI Pa-No. 15, Table 7, read-out: MIC
  MIC: 6.3 µg/mL
Pseudomonas aeruginosa; BBRI Pa-No. 16, No. 130, Table 2, read-out: MIC
  MIC: 0.8 µg/mL
Pseudomonas aeruginosa; BBRI Pa-No. 16, No. 130, Table 7, read-out: MIC
  MIC: 0.4 µg/mL
Pseudomonas aeruginosa; BBRI Pa-No. 17, H6 D114, Table 2, read-out: MIC
  MIC: 6.3 µg/mL
Pseudomonas aeruginosa; BBRI Pa-No. 17, H6 D114, Table 7, read-out: MIC
  MIC: 3.1 µg/mL
Pseudomonas aeruginosa; BBRI Pa-No. 18, H8 D121, Table 2, read-out: MIC
  MIC: 6.3 µg/mL
Pseudomonas aeruginosa; BBRI Pa-No. 18, H8 D121, Table 7, read-out: MIC
  MIC: 1.6 µg/mL
Pseudomonas aeruginosa; BBRI Pa-No. 19, Table 2, read-out: MIC
  MIC: 1.6 µg/mL
Pseudomonas aeruginosa; BBRI Pa-No. 19, Table 7, read-out: MIC
  MIC: 0.8 µg/mL
Pseudomonas aeruginosa; BBRI Pa-No. 20, Table 2, read-out: MIC
  MIC: 3.1 µg/mL
Pseudomonas aeruginosa; BBRI Pa-No. 20, Table 7, read-out: MIC
  MIC: 3.1 µg/mL
Pseudomonas aeruginosa; BBRI Pa-No. 21, Table 2, read-out: MIC
  MIC: 3.1 µg/mL
Pseudomonas aeruginosa; BBRI Pa-No. 21, Table 7, read-out: MIC
  MIC: 3.1 µg/mL
Pseudomonas aeruginosa; BBRI Pa-No. 23, Table 2, read-out: MIC
  MIC: 6.3 µg/mL
Pseudomonas aeruginosa; BBRI Pa-No. 23, Table 7, read-out: MIC
  MIC: 1.6 µg/mL
Pseudomonas aeruginosa; BBRI Pa-No. 24, Table 2, read-out: MIC
  MIC: 50 µg/mL
Pseudomonas aeruginosa; BBRI Pa-No. 24, Table 7, read-out: MIC
  MIC: 25 µg/mL
Pseudomonas aeruginosa; BBRI Pa-No. 25, Table 2, read-out: MIC
  MIC: 1.6 µg/mL
Pseudomonas aeruginosa; BBRI Pa-No. 25, Table 7, read-out: MIC
  MIC: 0.8 µg/mL
Pseudomonas aeruginosa; BBRI Pa-No. 26, Ps32, Table 2, read-out: MIC
  MIC: 3.1 µg/mL
Pseudomonas aeruginosa; BBRI Pa-No. 26, Ps32, Table 7, read-out: MIC
  MIC: 6.3 µg/mL
Pseudomonas aeruginosa; BBRI Pa-No. 28, CPH1C527/72, Table 7, read-out: MIC
  MIC: 3.1 µg/mL
Pseudomonas aeruginosa; BBRI Pa-No. 28, CPH10527/72, Table 2, read-out: MIC
  MIC: 6.3 µg/mL
Pseudomonas aeruginosa; BBRI Pa-No. 29, D122, Table 2, read-out: MIC
  MIC: 1.6 µg/mL
Pseudomonas aeruginosa; BBRI Pa-No. 29, D122, Table 7, read-out: MIC
  MIC: 1.6 µg/mL
Pseudomonas aeruginosa; BBRI Pa-No. 30, Table 2, read-out: MIC
  MIC: 3.1 µg/mL
Pseudomonas aeruginosa; BBRI Pa-No. 30, Table 7, read-out: MIC
  MIC: 1.6 µg/mL
Pseudomonas aeruginosa; BBRI Pa-No. 31, Table 2, read-out: MIC
  MIC: 1.6 µg/mL

From patent publication US4138554A, “7-[D-α-(4-Hydroxy-1,5-naphthyridine-3-carboxamido)-α-phenyl (and p-hydroxyphenyl)acetamido]-3-carbamoyloxymethyl-3-cephem-4-carboxylic acids” (priority 1977, dated 1979)
